Reference: BigSolDB 2.1

OC[C@H]1O[C@@H](Oc2ccc(O)cc2)[C@H](O)[C@@H](O)[C@@H]1O
solubility (mole fraction)
Settings	283.15 K	288.15 K	293.15 K	298.15 K	303.15 K	313.15 K	323.15 K
in 1,4-dioxane	0.0046	–	0.00491	–	0.00579	0.00696	0.00816
in acetone	0.000601	–	0.000781	–	0.000962	0.00126	0.00161
in acetonitrile	3.5e-05	–	7.2e-05	–	0.000145	0.000239	0.000365
in dichloromethane	4e-06	7e-06	1e-05	1.3e-05	1.6e-05	–	–
in ethanol	0.00228	–	0.00274	–	0.00351	0.0044	0.00582
in ethyl acetate	0.000155	–	0.00016	–	0.000166	0.000173	0.00018
in isopropanol	0.000532	–	0.000795	–	0.00128	0.00172	0.00259
in methanol	0.0112	–	0.0129	–	0.0151	0.0181	0.0226
in n-pentanol	0.000338	–	0.000471	–	0.000689	0.000851	0.00119
in n-propanol	0.000787	–	0.00102	–	0.00142	0.00185	0.00248
in sec-butanol	0.000355	–	0.000691	–	0.000969	0.00167	0.00226
in water	0.00524	–	0.00796	–	0.0108	0.0173	0.0283
